Data as given in ChEMBL document CHEMBL4765478, “Lithocholic Acid Derivatives as Potent Vitamin D Receptor Agonists” (J Med Chem, 2021).
One block for each compound: values may come before it. The source made the active and inactive calls. No cut-off for these calls is given here.

Key:
[1] = target: T1, Vitamin D3 receptor (Homo sapiens) (UniProt P11473); experiment: Agonist activity at VDR in human HL-60 cells assessed as induction of cell differentiation of promyelocytes to monocytes at 1 uM after 4 days by NBT reduction assay; type: cell-based; settings: filed as agonist, time 4.0 day
T1 sequence (whole entry): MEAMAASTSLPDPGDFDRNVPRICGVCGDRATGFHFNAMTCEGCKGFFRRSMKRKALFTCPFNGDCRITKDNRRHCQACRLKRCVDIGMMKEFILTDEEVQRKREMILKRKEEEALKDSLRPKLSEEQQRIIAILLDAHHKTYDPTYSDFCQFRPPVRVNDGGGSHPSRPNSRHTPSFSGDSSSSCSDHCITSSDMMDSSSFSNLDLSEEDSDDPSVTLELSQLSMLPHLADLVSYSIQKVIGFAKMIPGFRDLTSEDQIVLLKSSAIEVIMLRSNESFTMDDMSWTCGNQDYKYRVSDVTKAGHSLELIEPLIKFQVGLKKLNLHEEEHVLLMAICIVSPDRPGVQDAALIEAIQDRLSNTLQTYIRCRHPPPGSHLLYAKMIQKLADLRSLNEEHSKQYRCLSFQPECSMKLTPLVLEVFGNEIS

Vitamin D3 receptor [2] = target: T2, Vitamin D3 receptor (Homo sapiens, UniProt P11473); experiment: Agonist activity at human VDR expressed in African green monkey COS7 cells expressing mouse osteopontin VDRE assessed as induction of receptor transactivation incubated for 16 hrs by luciferase reporter gene assay; type: cell-based
T2 sequence (P11473 whole entry): T1 sequence (whole entry)

Vitamin D3 receptor [3] = target: T2, Vitamin D3 receptor; experiment: Agonist activity at human VDR expressed in HEK293 cells expressing mouse osteopontin VDRE assessed as induction of receptor transactivation incubated for 16 hrs by luciferase reporter gene assay; type: cell-based
[4] = target: T3, Vitamin D3 receptor (Bos taurus) (UniProt Q28037); experiment: (§1) Displacement of [3H]-1-alpha,25-(OH)2D3 from bovine thymus VDR incubated for 18 hrs by competitive binding assay; settings: filed as agonist
T3 sequence (whole entry): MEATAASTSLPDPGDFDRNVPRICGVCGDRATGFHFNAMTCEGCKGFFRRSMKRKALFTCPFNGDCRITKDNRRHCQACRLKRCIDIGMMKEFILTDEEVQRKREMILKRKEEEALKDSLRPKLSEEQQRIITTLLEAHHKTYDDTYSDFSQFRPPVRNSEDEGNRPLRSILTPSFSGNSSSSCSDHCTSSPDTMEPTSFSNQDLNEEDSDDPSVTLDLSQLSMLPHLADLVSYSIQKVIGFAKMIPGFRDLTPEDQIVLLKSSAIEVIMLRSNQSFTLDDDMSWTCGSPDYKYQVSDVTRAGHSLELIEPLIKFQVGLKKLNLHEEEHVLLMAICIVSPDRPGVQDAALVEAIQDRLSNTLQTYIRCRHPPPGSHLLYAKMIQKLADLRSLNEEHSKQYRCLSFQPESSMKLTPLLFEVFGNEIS

Vitamin D3 receptor [5] = target: T4, Vitamin D3 receptor (Bos taurus, UniProt Q28037); experiment: as §1
T4 sequence (Q28037 whole entry): T3 sequence (whole entry)

[6] = target: T1, Vitamin D3 receptor (Homo sapiens); experiment: Agonist activity at VDR in human HL-60 cells assessed as induction of cell differentiation of promyelocytes to monocytes at 0.1 nM after 4 days by NBT reduction assay; type: cell-based; settings: filed as agonist, time 4.0 day
[7] = target: T1, Vitamin D3 receptor (Homo sapiens); experiment: Potency index, ratio of EC50 for 1-alpha,25-(OH)2D3 to EC50 for test compound for agonist activity at VDR in human HL60 cells assessed as induction of cell differentiation of promyelocytes to monocytes after 4 days by NBT reduction assay; type: cell-based; settings: HL-60, time 4.0 day
[8] = target: T1, Vitamin D3 receptor (Homo sapiens); experiment: Potency index, ratio of EC50 for lithocholic acid to EC50 for test compound for agonist activity at VDR in human HL60 cells assessed as induction of cell differentiation of promyelocytes to monocytes after 4 days by NBT reduction assay; type: cell-based; settings: HL-60, time 4.0 day

- Activity [1]: Active
SMILES: C[C@H](CCC(=O)O)[C@H]1CC[C@H]2[C@@H]3CC[C@@H]4C[C@H](C(C)(C)O)CC[C@]4(C)[C@H]3CC[C@]12C

SMILES: CC(=O)O[C@@H]1CC[C@@]2(C)[C@H](CC[C@@H]3[C@@H]2CC[C@]2(C)[C@@H]([C@H](C)CCC(=O)O)CC[C@@H]32)C1
- Activity [1]: Active

SMILES: C[C@H](CCC(=O)O)[C@H]1CC[C@H]2[C@@H]3CC[C@@H]4C[C@@H](CC(C)(C)O)CC[C@]4(C)[C@H]3CC[C@]12C
- EC50 (Vitamin D3 receptor [2]): 0.24 nM
- EC50 (Vitamin D3 receptor [3]): 0.014 nM
- Activity [4]: Dose-dependent effect
- IC50 (Vitamin D3 receptor [5]): 67.3 nM

SMILES: C[C@H](CCC(=O)O)[C@H]1CC[C@H]2[C@@H]3CC[C@@H]4C[C@H](CC(C)(C)O)CC[C@]4(C)[C@H]3CC[C@]12C
- EC50 (Vitamin D3 receptor [2]): 1 nM
- Activity [6]: Active
- Ratio EC50 [7]: 3
- EC50 (Vitamin D3 receptor [3]): 0.15 nM
- Ratio EC50 [8]: < 10000
- Activity [4]: Dose-dependent effect
- IC50 (Vitamin D3 receptor [5]): 2.09 nM

- Activity [1]: Active
SMILES: C[C@H](CCC(=O)O)[C@H]1CC[C@H]2[C@@H]3CC[C@@H]4C[C@H](OS(C)(=O)=O)CC[C@]4(C)[C@H]3CC[C@]12C
